Results reported in ChEMBL document CHEMBL1201862, “PubChem BioAssay data set” (2004).
Calls of active or inactive are those of the source.

Columns and labels:
[1] = biological target: Beta-galactosidase (Escherichia coli, UniProt Q8VNN2); assay: detection-enzyme interference by beta-gal modulators – biochemical, E. coli enzyme, set 3, artefact control for CCR6 antagonist project, dose response (AID 504712); format: functional
[2] = Fluorescence-based cell-based high throughput dose response assay for inhibitors of the interaction of nucleotide-binding oligomerization domain containing 2 (NOD2) and the receptor-interacting serine-threonine kinase 2 (RIPK2).; format: functional; conditions: Homo sapiens
[3] = viability loss in THP-1 monocytes – THP-1 cells, cytotoxicity control for Vif-APOBEC3G degradation inhibitor project, dose response (AID 1117359); format: functional; conditions: THP-1
[4] = biological target: Voltage-dependent T-type calcium channel subunit alpha-1H (Homo sapiens, UniProt O95180); assay: human CACNA1H calcium influx blockade – cell-based, synthetic library set 1, calcium flux (AID 493022); format: functional
Chain of Voltage-dependent T-type calcium channel subunit alpha-1H (O95180 whole entry): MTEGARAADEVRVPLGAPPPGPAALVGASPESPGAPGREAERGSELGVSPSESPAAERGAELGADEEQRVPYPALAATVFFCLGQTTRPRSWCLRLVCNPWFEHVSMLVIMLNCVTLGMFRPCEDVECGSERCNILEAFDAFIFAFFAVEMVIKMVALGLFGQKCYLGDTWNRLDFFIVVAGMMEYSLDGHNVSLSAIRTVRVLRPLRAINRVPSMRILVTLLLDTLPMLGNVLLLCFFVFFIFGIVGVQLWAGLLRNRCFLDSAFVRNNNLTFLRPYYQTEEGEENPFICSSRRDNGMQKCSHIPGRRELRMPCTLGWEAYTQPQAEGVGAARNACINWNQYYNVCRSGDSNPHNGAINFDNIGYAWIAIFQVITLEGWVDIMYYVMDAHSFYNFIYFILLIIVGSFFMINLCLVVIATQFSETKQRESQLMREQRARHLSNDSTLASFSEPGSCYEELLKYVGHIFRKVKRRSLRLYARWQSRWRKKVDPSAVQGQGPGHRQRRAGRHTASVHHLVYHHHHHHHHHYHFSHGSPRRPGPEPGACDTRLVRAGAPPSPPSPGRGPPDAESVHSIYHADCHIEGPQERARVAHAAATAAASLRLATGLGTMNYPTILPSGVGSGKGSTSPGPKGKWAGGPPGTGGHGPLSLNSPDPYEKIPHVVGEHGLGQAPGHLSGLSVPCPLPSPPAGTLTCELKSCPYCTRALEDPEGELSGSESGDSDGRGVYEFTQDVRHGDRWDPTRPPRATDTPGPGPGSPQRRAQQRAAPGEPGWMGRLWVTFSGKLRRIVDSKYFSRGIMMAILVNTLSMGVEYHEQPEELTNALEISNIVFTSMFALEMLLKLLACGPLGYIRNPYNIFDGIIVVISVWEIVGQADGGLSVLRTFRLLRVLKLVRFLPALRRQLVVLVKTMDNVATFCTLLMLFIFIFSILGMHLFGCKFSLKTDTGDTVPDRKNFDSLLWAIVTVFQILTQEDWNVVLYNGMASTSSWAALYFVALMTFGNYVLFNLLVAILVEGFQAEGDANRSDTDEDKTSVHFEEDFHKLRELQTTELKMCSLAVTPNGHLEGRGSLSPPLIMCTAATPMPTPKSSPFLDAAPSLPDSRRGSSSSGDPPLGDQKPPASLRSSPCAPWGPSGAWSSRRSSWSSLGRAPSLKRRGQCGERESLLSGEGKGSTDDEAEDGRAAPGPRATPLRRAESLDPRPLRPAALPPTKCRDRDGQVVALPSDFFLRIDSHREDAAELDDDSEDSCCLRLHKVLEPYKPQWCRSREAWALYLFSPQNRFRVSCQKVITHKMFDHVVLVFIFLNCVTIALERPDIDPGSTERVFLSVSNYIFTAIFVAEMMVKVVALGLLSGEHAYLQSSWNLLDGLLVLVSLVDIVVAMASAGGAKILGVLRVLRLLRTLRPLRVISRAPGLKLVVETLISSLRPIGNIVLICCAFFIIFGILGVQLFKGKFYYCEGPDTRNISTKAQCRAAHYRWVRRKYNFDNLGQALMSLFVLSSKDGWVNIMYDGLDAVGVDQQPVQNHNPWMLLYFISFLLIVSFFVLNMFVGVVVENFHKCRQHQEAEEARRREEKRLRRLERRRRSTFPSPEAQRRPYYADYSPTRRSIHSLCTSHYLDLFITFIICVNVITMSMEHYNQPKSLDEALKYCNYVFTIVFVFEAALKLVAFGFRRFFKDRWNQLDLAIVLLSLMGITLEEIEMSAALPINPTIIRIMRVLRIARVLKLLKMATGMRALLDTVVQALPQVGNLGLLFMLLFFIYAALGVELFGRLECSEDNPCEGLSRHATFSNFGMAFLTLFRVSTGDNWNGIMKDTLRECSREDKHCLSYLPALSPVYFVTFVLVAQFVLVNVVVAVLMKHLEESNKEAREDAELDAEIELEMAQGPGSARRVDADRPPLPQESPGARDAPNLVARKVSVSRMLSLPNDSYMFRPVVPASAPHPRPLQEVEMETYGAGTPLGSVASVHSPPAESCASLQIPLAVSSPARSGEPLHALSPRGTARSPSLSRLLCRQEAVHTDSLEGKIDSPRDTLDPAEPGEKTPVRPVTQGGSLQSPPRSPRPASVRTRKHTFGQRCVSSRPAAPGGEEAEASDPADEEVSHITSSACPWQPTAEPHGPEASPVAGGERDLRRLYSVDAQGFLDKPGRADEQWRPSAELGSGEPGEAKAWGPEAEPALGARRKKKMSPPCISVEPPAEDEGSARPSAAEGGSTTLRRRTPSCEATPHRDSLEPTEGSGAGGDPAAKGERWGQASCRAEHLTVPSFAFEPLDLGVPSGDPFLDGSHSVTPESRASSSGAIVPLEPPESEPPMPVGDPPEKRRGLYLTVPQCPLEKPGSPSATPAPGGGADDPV

[5] = biological target: T1, Mannose-6-phosphate isomerase (Homo sapiens, UniProt P34949); assay: phosphomannose isomerase inhibition – biochemical, fluorescence intensity, confirmation (AID 1535)
T1 sequence (P34949 whole entry): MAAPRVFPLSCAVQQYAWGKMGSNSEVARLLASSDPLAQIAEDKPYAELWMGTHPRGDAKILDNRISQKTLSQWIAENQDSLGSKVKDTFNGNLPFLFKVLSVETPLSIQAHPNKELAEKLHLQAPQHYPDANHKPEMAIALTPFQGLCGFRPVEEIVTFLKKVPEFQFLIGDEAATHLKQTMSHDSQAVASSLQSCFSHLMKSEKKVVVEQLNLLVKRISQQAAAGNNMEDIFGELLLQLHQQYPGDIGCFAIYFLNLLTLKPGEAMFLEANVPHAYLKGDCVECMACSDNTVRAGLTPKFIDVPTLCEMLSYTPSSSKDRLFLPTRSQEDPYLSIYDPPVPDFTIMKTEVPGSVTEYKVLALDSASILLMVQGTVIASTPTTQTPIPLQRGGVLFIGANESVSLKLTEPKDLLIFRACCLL

[6] = biological target: Phosphomannomutase 2 (Homo sapiens, UniProt O15305); assay: Counter screen SAR assay for PMM2 inhibitors via a fluorescence intensity assay. [Related pubchem assays (depositor defined):AID1545, AID1574]
Chain of Phosphomannomutase 2 (O15305 whole entry): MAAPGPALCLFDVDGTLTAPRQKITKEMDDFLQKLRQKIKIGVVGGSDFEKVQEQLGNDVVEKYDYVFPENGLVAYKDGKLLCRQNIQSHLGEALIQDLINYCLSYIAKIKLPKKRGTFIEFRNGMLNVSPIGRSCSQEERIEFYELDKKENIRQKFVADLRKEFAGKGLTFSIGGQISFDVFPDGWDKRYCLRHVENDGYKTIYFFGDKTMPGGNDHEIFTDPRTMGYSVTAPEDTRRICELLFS

[7] = biological target: G2/mitotic-specific cyclin-B1 (Homo sapiens, UniProt P14635); assay: HeLa cell cycle G2/M accumulation – FACS, mechanism study for Wee1 degradation inhibitor project, late-stage follow-up, panel member Cyclin B Degradation (AID 2088)
Chain of G2/mitotic-specific cyclin-B1 (P14635 whole entry): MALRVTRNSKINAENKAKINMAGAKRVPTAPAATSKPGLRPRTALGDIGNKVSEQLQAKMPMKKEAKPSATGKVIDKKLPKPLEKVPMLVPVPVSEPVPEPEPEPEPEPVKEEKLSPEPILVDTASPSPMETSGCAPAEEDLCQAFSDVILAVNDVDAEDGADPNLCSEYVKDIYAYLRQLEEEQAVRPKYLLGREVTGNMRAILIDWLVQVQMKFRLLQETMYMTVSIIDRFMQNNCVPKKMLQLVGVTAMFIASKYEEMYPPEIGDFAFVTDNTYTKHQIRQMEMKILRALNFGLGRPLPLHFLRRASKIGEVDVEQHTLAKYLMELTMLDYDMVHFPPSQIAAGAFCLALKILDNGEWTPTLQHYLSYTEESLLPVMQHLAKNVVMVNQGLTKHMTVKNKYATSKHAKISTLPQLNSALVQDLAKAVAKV

[8] = biological target: Wee1-like protein kinase (Homo sapiens, UniProt P30291); assay: HeLa cell cycle G2/M accumulation – FACS, mechanism study for Wee1 degradation inhibitor project, late-stage follow-up, panel member Wee1 Degradation (AID 2088)
Chain of Wee1-like protein kinase (P30291 whole entry): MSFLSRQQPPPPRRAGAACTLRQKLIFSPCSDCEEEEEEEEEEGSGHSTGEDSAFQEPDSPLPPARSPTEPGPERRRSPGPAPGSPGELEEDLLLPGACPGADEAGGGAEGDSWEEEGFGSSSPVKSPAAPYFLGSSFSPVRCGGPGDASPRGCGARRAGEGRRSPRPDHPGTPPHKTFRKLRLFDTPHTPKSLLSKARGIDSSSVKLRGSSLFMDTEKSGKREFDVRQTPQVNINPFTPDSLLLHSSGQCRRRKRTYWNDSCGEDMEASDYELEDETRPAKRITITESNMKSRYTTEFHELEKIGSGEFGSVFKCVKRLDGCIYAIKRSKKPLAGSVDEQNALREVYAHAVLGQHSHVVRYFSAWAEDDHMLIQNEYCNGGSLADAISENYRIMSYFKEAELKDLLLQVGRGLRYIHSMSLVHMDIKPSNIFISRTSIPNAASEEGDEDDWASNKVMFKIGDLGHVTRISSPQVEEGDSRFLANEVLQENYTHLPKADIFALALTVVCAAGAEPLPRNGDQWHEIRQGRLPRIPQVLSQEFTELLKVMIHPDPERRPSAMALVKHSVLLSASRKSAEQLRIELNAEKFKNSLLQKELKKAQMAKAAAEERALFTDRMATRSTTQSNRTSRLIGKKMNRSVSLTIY

[9] = biological target: Voltage-gated inwardly rectifying potassium channel KCNH2 (Homo sapiens, UniProt Q12809); conditions: Potency;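 note: confirmatory quantitative high-throughput screen measuring inhibition of hERG channel activity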
[10] = biological target: E3 ubiquitin-protein ligase XIAP (Homo sapiens, UniProt P98170); assay: Counter Screen using XIAP-Bir3 for Chemical Antagonists of Bir1/2 domains of IAP-family anti-apoptotic proteins. [Related pubchem assays (depositor defined):AID1018, AID1449, AID1514, AID1638, AID1749, AID1750, AID488957, AID488963]
[11] = biological target: Trypsin (Sus scrofa, UniProt P00761); assay: trypsin protease activity blockade – biochemical, quenched peptide fluorescence, cherry-pick, selectivity assay for Rce1 protease inhibitor project, dose response (AID 488789)
Chain of Trypsin (P00761 whole entry): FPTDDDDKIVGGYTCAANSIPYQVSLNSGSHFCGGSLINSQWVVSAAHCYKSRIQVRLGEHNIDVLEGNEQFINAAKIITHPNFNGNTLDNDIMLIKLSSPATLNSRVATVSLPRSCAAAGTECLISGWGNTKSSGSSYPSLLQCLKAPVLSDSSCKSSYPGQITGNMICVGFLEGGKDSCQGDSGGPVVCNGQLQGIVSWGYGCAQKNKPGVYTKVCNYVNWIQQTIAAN

[12] = MIN6 cell viability loss – mouse insulinoma, cytotoxicity control, dose response (AID 2122); format: functional;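 note: confirmatory high-throughput counterscreen run to flag cytotoxic compounds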
[13] = decrease of insulin promoter-GFP reporter – imaging, high-content screening, mouse beta cells (AID 1628); format: functional; conditions: MIN6
[14] = biological target: Troponin, cardiac muscle (Homo sapiens, UniProt P19429+P45379+P63316); assay: Fluorescence-based biochemical high throughput dose response assay for activators of the calcium sensitivity of cardiac Regulated Thin Filaments (RTF). [Related pubchem assays (depositor defined):AID493008, AID493018, AID504382, AID504383]; format: protein-complex assay
[15] = test system: Jurkat; assay: SAR Analysis of small molecule inhibitors of […] specific antigen receptor-induced NF-kB activation in a Jurkat cell line using a luminescence assay - Set 3. [Related pubchem assays (depositor defined):AID435022, AID435025, AID465]; format: functional, cell-based; conditions: Homo sapiens
[16] = test system: HEK293; assay: HEK293T cell viability loss, resazurin readout – resazurin fluorescence, cytotoxicity control for NF-kB activator project, SAR follow-up (AID 493251); format: functional, cell-based; conditions: Homo sapiens
[17] = test system: HEK293; assay: SAR Analysis of small molecule inhibitors of B-cell specific antigen receptor-induced NF-kB activation in a HEK-293T cell line using a luminescence assay - Set 2. [Related pubchem assays (depositor defined):AID435022, AID435025, AID489021]; format: functional, cell-based; conditions: Homo sapiens
[18] = biological target: T2, Tyrosine-protein phosphatase non-receptor type 7 (Homo sapiens, UniProt P35236); assay: inhibition of hematopoietic tyrosine phosphatase HePTP – biochemical, set 2, SAR follow-up (AID 449736); format: functional
T2 sequence (P35236 whole entry): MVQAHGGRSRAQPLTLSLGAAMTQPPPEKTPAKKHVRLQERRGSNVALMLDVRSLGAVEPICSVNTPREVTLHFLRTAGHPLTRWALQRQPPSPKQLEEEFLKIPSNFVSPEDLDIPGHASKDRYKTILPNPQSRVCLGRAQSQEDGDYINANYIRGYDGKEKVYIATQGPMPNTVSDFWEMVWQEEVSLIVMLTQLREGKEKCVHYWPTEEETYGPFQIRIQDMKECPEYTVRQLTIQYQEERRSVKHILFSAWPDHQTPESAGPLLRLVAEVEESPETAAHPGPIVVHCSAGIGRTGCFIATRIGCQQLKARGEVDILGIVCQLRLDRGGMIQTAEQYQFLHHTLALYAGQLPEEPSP

[19] = biological target: T2, Tyrosine-protein phosphatase non-receptor type 7; format: functional
[20] = biological target: T3, Tyrosine-protein phosphatase non-receptor type 22 (Homo sapiens, UniProt Q9Y2R2); format: functional
T3 sequence (Q9Y2R2 whole entry): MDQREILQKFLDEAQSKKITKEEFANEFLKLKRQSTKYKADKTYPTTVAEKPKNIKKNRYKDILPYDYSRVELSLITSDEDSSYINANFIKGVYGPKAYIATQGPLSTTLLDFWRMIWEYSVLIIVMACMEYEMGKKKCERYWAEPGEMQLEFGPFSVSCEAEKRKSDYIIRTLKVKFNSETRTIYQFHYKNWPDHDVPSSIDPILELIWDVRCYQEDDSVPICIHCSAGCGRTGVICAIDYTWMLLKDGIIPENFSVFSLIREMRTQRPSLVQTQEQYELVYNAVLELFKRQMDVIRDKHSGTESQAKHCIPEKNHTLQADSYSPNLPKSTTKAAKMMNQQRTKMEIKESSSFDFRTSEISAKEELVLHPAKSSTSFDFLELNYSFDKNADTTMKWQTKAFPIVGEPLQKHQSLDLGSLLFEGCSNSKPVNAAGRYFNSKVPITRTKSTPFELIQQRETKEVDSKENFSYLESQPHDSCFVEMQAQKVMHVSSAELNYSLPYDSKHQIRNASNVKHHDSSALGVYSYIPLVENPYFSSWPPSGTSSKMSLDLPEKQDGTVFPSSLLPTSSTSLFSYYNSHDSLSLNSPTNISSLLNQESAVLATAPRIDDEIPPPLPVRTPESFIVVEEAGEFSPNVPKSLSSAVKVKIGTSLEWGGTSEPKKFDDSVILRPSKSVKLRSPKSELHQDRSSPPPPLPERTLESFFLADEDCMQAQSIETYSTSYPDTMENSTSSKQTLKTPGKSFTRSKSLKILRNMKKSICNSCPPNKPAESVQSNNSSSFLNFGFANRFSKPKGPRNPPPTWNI

[21] = biological target: T3, Tyrosine-protein phosphatase non-receptor type 22; format: functional; remark: listed apart in the source
[22] = biological target: Alkaline phosphatase, placental type (Homo sapiens, UniProt P05187); assay: human placental alkaline phosphatase inhibition – biochemical, luminescence, confirmation (AID 1512); format: functional
[23] = biological target: Glyceraldehyde-3-phosphate dehydrogenase (Homo sapiens, UniProt P04406)
[24] = biological target: Eukaryotic translation initiation factor 4H (Homo sapiens, UniProt Q15056); assay: eIF4H binding inhibition – biochemical, uHTS, fluorescence polarization, translation initiation inhibitor project, primary screen (AID 2012)
[25] = test system: Streptococcus sp. 'group A'; assay: Streptococcus pyogenes SK(-)GAS viability under kanamycin – luminescence, BacTiterGlo, confirmation, counter-screen for streptokinase expression inhibitor project, dose response (AID 1900); format: functional, organism-based
[26] = biological target: T4, Streptokinase A (Streptococcus pyogenes serotype M1, UniProt P10520); assay: viability-normalized secreted streptokinase activity reduction – plasminogen activation absorbance, OD405, dose response (AID 1914); format: functional, Streptococcus pyogenes M1 GAS;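 note: secreted streptokinase activity via plasminogen activation per viability signal from cell pellet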
T4 sequence (P10520 whole entry): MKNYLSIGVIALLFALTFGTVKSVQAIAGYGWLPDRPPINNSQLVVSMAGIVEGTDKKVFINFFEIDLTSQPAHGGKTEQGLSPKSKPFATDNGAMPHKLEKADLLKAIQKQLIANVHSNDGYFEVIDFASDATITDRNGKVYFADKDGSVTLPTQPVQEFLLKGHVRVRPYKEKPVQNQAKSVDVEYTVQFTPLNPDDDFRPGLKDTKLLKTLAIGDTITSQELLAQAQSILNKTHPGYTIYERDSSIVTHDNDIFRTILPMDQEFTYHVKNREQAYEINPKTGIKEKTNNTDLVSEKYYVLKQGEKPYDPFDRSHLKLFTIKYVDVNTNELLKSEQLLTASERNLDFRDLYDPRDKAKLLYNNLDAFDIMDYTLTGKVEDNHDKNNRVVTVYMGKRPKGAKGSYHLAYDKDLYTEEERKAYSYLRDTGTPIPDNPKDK

[27] = biological target: Polyadenylate-binding protein 1 (Homo sapiens, UniProt P11940); assay: blockers of PABP interaction with poly(A) – biochemical, fluorescence polarization, […] (AID 2014)
[28] = test system: Streptococcus; assay: GAS UMAA2166 growth inhibition – luminescence, BacTiterGlo, counter-screen for streptokinase expression inhibitor project, dose response (AID 1915); format: functional, organism-based;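 note: potency for reduction of bacterial viability or growth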
[29] = biological target: T5, Carboxy-terminal domain RNA polymerase II polypeptide A small phosphatase 1 (Homo sapiens, UniProt Q9GZU7); assay: CTDSP1 inhibitors, concentration-response, biochemical, absorbance readout, ultra-high-throughput screen actives (AID 540297); format: functional
T5 sequence (Q9GZU7 whole entry): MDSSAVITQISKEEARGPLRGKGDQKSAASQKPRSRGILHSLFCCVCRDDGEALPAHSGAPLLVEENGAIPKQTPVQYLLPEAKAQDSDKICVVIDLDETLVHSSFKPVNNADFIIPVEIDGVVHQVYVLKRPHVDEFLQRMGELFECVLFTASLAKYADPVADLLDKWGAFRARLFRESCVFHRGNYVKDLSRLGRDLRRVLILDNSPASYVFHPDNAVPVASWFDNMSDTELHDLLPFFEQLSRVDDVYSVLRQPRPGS

Chain of Beta-galactosidase (Q8VNN2 whole entry, the tested form may be a part): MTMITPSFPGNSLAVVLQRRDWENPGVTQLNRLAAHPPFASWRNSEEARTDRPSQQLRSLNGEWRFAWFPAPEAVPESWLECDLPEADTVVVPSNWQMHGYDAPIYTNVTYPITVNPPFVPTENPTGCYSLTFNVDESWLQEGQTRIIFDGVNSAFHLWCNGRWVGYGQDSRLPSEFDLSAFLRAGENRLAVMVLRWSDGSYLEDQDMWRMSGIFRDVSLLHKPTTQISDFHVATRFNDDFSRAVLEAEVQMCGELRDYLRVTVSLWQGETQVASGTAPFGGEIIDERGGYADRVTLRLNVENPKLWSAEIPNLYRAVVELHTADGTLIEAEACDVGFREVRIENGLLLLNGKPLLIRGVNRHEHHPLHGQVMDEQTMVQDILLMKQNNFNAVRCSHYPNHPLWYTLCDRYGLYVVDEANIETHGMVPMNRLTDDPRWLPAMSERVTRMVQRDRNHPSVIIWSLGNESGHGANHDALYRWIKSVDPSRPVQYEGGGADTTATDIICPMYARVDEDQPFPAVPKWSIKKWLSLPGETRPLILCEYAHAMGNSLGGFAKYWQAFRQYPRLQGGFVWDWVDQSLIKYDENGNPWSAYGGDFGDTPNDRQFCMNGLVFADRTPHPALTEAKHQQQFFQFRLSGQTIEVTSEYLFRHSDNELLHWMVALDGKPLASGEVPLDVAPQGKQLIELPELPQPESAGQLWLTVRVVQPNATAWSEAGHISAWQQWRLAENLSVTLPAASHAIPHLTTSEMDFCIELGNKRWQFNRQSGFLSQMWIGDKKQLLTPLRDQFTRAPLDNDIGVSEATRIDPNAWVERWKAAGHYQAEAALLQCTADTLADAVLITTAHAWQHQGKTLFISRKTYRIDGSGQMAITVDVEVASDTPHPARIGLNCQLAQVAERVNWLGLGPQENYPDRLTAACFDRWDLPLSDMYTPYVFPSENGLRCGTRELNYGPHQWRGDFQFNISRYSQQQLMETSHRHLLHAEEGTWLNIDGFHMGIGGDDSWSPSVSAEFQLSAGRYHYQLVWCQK

## CCOC(=O)c1cc([N+](=O)[O-])cc([N+](=O)[O-])c1Sc1[nH]cnc2ncnc1-2
[1]
  IC50: > 66.6 µM (inactive)
[2]
  IC50: 3.29 µM (active)
[3]
  CC50: 1.6 µM (active)

## Cc1ccc(-c2nnc(NC(=O)COc3ccc(F)cc3)o2)cc1C
[4]
  EC50: 10 µM (active)

## Sc1n[nH]c(-c2ccccc2Cl)n1
[5]
  IC50: > 50 µM (inactive)
[6]
  IC50: > 100 µM (inactive)

## CSc1cccc(NC(=O)CCCOc2cc(=O)n(C)c3ccccc23)c1
[7]
  EC50: > 49.7 µM (inactive)
[8]
  EC50: > 49.7 µM (inactive)

## CC(C)COC(=O)c1ccccc1C(=O)OCC(C)C
[9]
  AC50: 35.5 µM (inconclusive)

## Cc1ccc(C(=O)COc2ccccc2C(=O)Nc2ccccc2)cc1
[10]
  IC50: > 20 µM (inactive)

## O=C(COc1ccc(F)cc1Cl)Nc1nnc(-c2ccc3ccccc3c2)o1
[4]
  EC50: 3.6 µM (active)

## NS(=O)(=O)c1ccc(NC(=O)/C=C/c2cn(-c3ccccc3)nc2-c2cccc(Cl)c2)cc1
[11]
  AC50: 81.4 µM (active)

## Cn1c(N2CCOCC2)c(/C=N/OC(=O)c2cccnc2Cl)c2ccccc21
[12]
  IC50: 1.4 µM (active)
[13]
  IC50: 3.37 µM (active)

## Cc1cc(O)nc(-n2nc(C)cc2NC(=O)c2ccccc2)n1
[7]
  EC50: > 49.7 µM (inactive)
[8]
  EC50: > 16.6 µM (active)

## CCOC(=O)/C(=C\c1c[nH]c2ccccc12)NC(C)=O
[14]
  EC50: > 71.4 µM (inactive)

## CCOc1ccc(-c2nc(CSCC(=O)NCc3cccs3)c(C)o2)cc1
[15]
  IC50: > 80 µM (inactive)
[16]
  IC50: 34.8 µM (inactive)
[17]
  IC50: 24.3 µM (inactive)

## NS(=O)(=O)c1ccc(NC(S)=NC2CCCC2)cc1
[18]
  IC50: 28 µM (active)

## O=C(c1cc2cc(F)ccc2[nH]1)N1CCN(C(=O)c2ccco2)CC1
[19]
  IC50: > 79.4 µM (inactive)
[20]
  IC50: > 79.4 µM (inactive)
[21]
  IC50: > 79.4 µM (inactive)

## CC(C)(C)NC(=O)c1cc(-c2ccc(Cl)cc2Cl)n[nH]1
[22]
  IC50: > 100 µM (inactive)
[23]
  IC50: > 100 µM (not active)

## CCCNC(=O)CCc1nc(-c2ccc(C(C)(C)C)cc2)no1
[15]
  IC50: > 80 µM (inactive)
[16]
  IC50: > 80 µM (inactive)
[17]
  IC50: 9.19 µM (active)

## COc1ccc(C(CC(=O)N2CCCC(C)C2)c2c(OC)cc(OC)c3c(-c4ccccc4)cc(=O)oc23)cc1 (stereo unspecified)
[24]
  IC50: 8.23 µM (active)
[25]
  EC50: 14.5 µM (active)
[26]
  EC50: 41.2 µM (active)
[27]
  IC50: 28.3 µM (active)
[28]
  EC50: > 150 µM (not active)
[29]
  IC50: 7.99 µM (active)

## O=C(Nc1ccc2c(c1)OCCO2)c1cccc(Cl)c1Cl
[14]
  EC50: > 71.4 µM (inactive)
